{"source": "patent US20120064528A1", "about": "“METHODS AND REAGENTS FOR QUANTIFYING NUCLEIC ACID FRAGMENTATION AND APOPTOSIS (QLM-PCR, CELL NUMBER QPCR AND APOQPCR)” (THE MACFARLANE BURNET INSTITUTE FOR MEDICAL RESEARCH AND …, priority 2010, published 2012)", "key": {"[1]": {"tested_on": "Jurkat cells", "test": "Apoptosis measured by TUNEL with flow cytometry", "assay_type": "cell-based, human", "experimental": "To verify the definition of 100% apoptotic DNA, apoptosis was measured by TUNEL with flow cytometry from fractions of the same cultured cells used for genomic nucleic acid purification (above). At each time point and each staurosporine concentration, cells (6 ml) were collected, washed twice with PBS and resuspended in PBS to 2×10^7 cells/ml for duplicate 100 μl cells per micro-well. TUNEL procedure for cell suspensions followed the In Situ Cell Death Detection Kit, Flourescein (Roche, Mannheim, Germany) with the following modifications: after pelleting cells in wells, supernatant was aspirated and cells gently resuspended in 100 μl/well of fixation/permeabilisation solution (Cytofix/Cytoperm kit, BD Biosciences/Pharmingen, CA, USA). After incubation for 20 minutes at 4° C., cells were washed at this and subsequent wash stages 2 times at room temperature with perm/wash buffer (Cytofix/Cytoperm kit). After final washes, cells were resuspended in 250 μl/well 1% paraformaldehyde in PBS, stored at 4° C. in the dark for up to 12 hours and analyzed by flow cytometry at excitation 488 nm, detection 530 nm using a BD FACScan (BD Biosciences). At each measurement at least 10,000 events were sorted. Mean TUNEL positivity for cells incubated for 5 hours without staurosporine was 3%, while positivity for cells incubated for 5 hours with 8 μM staurosporine was 98.5% (FIG. 3)."}, "[2]": {"tested_on": "Jurkat cells", "test": "Genomic DNA fragmentation by agarose gel electrophoresis and trace intensity", "assay_type": "cell-based, human", "settings": "5 hours", "experimental": "Jurkat cells were grown to log phase in RF-10 tissue culture medium, pelleted and resuspended to 10^6 cells/ ml in new RF-10 at 37° C., and incubated at 37° C. with or without staurosporine (at 4 or 8 μM) for 5 and 6 hours. At the end-points, genomic DNA was purified using Qiagen DNA mini-prep columns following the manufacturer's recommendations, including RNase treatment and stored at −80° C. These columns quantitatively purify nucleic acid in the target size range of 200 by to 50 kbp. Nucleic acid for each end-point was compared by agarose gel electrophoresis. The generation of 100% apoptotic nucleic acid was defined as the complete absence of any typically high molecular weight genomic nucleic acid and complete conversion of this length of nucleic acid into apoptotic fragments, as determined by trace intensity using a GelDoc Imager (BioRad). […] The same experiment from cell culture to nucleic acid purification was repeated to test reproducibility. Nucleic acid from both experiments was electrophoresed together and trace intensities compared (FIG. 2C)."}}, "note": "Entries after “also recorded” stand apart in the source; their conditions may differ.", "data": [{"smiles": "CN[C@@H]1C[C@H]2O[C@@](C)([C@@H]1OC)n1c3ccccc3c3c4c(c5c6ccccc6n2c5c31)C(=O)NC4", "note": "[staurosporine]", "values": [{"measurement": "Mean TUNEL positivity", "setting": "[1]; 8 μM staurosporine, 5 hours", "value": 98.5, "unit": "%"}, {"measurement": "apoptotic cells by TUNEL with flow cytometry (FACS)", "setting": "[1]; optimal test conditions", "value": 99, "unit": "%"}, {"measurement": "unfragmented high molecular weight genomic nucleic acid remaining, by trace quantification", "setting": "[2]; 4 μM staurosporine, 37° C.", "value": 1.8, "unit": "%"}, {"measurement": "DNA fragmentation as determined by trace analysis", "setting": "[2]; 8 μM staurosporine, 37° C. (optimal conditions)", "value": "all DNA was fragmented; also recorded: unfragmented nucleic acid was not detected"}]}]}
